± gives the expanded uncertainty stated by the source.
Test: molar heat capacity at constant pressure
Conditions: 101.33 kPa, Liquid

CCCCCCCCn1cc[n+](C)c1.O=S(=O)([O-])C(F)(F)F [1-octyl-3-methylimidazolium trifluoromethanesulfonate]
Conditions	molar heat capacity at constant pressure [J/K/mol]
313.17 K, Large sample (1 g) DSC	588 ± 31
315.15 K, Small sample (50 mg) DSC	604 ± 31
318.14 K, Large sample (1 g) DSC	592 ± 31
320.15 K, Small sample (50 mg) DSC	608 ± 32
323.13 K, Large sample (1 g) DSC	595 ± 31
325.15 K, Small sample (50 mg) DSC	612 ± 32
328.13 K, Large sample (1 g) DSC	595 ± 31
328.15 K, modulated-temperature differential scanning calorimetry MDSC	599 ± 30
330.15 K, Small sample (50 mg) DSC	612 ± 32
333.14 K, Large sample (1 g) DSC	595 ± 31
333.15 K, modulated-temperature differential scanning calorimetry MDSC	603 ± 30
335.15 K, Small sample (50 mg) DSC	616 ± 32
338.14 K, Large sample (1 g) DSC	598 ± 31
338.15 K, modulated-temperature differential scanning calorimetry MDSC	606 ± 30
340.15 K, Small sample (50 mg) DSC	620 ± 32
343.14 K, Large sample (1 g) DSC	599 ± 31
343.15 K, modulated-temperature differential scanning calorimetry MDSC	609 ± 30
345.15 K, Small sample (50 mg) DSC	623 ± 32
348.15 K, modulated-temperature differential scanning calorimetry MDSC	612 ± 31
348.17 K, Large sample (1 g) DSC	599 ± 31
350.15 K, Small sample (50 mg) DSC	627 ± 33
353.13 K, Large sample (1 g) DSC	601 ± 31
353.15 K, modulated-temperature differential scanning calorimetry MDSC	616 ± 31
355.15 K, Small sample (50 mg) DSC	631 ± 33
358.15 K, Large sample (1 g) DSC	605 ± 31
358.15 K, modulated-temperature differential scanning calorimetry MDSC	619 ± 31
360.15 K, Small sample (50 mg) DSC	634 ± 33
363.15 K, Large sample (1 g) DSC	610 ± 32
363.15 K, modulated-temperature differential scanning calorimetry MDSC	622 ± 31
365.15 K, Small sample (50 mg) DSC	637 ± 33
368.15 K, Large sample (1 g) DSC	616 ± 32
368.15 K, modulated-temperature differential scanning calorimetry MDSC	625 ± 31
370.15 K, Small sample (50 mg) DSC	641 ± 33
373.14 K, Large sample (1 g) DSC	617 ± 32
373.15 K, modulated-temperature differential scanning calorimetry MDSC	628 ± 31
375.15 K, Small sample (50 mg) DSC	644 ± 33
378.12 K, Large sample (1 g) DSC	621 ± 32
378.15 K, modulated-temperature differential scanning calorimetry MDSC	631 ± 32
380.15 K, Small sample (50 mg) DSC	648 ± 34
383.15 K, modulated-temperature differential scanning calorimetry MDSC	635 ± 32
383.16 K, Large sample (1 g) DSC	626 ± 33
385.15 K, Small sample (50 mg) DSC	652 ± 34
388.15 K, Large sample (1 g) DSC	631 ± 33
388.15 K, modulated-temperature differential scanning calorimetry MDSC	637 ± 32
390.15 K, Small sample (50 mg) DSC	655 ± 34
393.13 K, Large sample (1 g) DSC	636 ± 33
393.15 K, modulated-temperature differential scanning calorimetry MDSC	640 ± 32
395.15 K, Small sample (50 mg) DSC	658 ± 34
398.15 K, modulated-temperature differential scanning calorimetry MDSC	642 ± 32
398.17 K, Large sample (1 g) DSC	639 ± 33
400.15 K, Small sample (50 mg) DSC	663 ± 34
403.14 K, Large sample (1 g) DSC	642 ± 33
403.15 K, modulated-temperature differential scanning calorimetry MDSC	645 ± 32
405.15 K, Small sample (50 mg) DSC	666 ± 35
408.15 K, modulated-temperature differential scanning calorimetry MDSC	648 ± 32
408.18 K, Large sample (1 g) DSC	644 ± 33
410.15 K, Small sample (50 mg) DSC	670 ± 35
413.15 K, Large sample (1 g) DSC	647 ± 34
413.15 K, modulated-temperature differential scanning calorimetry MDSC	651 ± 33
415.15 K, Small sample (50 mg) DSC	673 ± 35
418.18 K, Large sample (1 g) DSC	649 ± 34
420.15 K, Small sample (50 mg) DSC	677 ± 35
423.14 K, Large sample (1 g) DSC	651 ± 34
425.15 K, Small sample (50 mg) DSC	680 ± 35

c1ccccc1 [benzene]
Small sample (50 mg) DSC
Conditions	molar heat capacity at constant pressure [J/K/mol]
295.15 K	134.8 ± 7
300.15 K	135.4 ± 7
305.15 K	136.5 ± 7.1
310.15 K	137.9 ± 7.2
315.15 K	139.2 ± 7.2
320.15 K	140.85 ± 7.3
325.15 K	142.5 ± 7.4
330.15 K	144.15 ± 7.5
335.15 K	145.8 ± 7.6
340.15 K	147.55 ± 7.7
345.15 K	149.3 ± 7.8
350.15 K	151.2 ± 7.9

C1CCOC1 [tetrahydrofuran]
Small sample (50 mg) DSC
Conditions	molar heat capacity at constant pressure [J/K/mol]
180.15 K	105.5 ± 5.5
185.15 K	105.6 ± 5.5
190.15 K	105.8 ± 5.5
195.15 K	106 ± 5.5
200.15 K	106.3 ± 5.5
205.15 K	106.5 ± 5.5
210.15 K	106.7 ± 5.5
215.15 K	107.2 ± 5.6
220.15 K	107.6 ± 5.6
225.15 K	107.9 ± 5.6
230.15 K	108.5 ± 5.6
235.15 K	109.2 ± 5.7
240.15 K	109.8 ± 5.7
245.15 K	110.6 ± 5.7
250.15 K	111.5 ± 5.8
255.15 K	112.4 ± 5.8
260.15 K	113.4 ± 5.9
265.15 K	114.4 ± 5.9
270.15 K	115.5 ± 6
275.15 K	116.6 ± 6.1
280.15 K	117.9 ± 6.1
285.15 K	119.2 ± 6.2
290.15 K	120.3 ± 6.3
295.15 K	121.7 ± 6.3
300.15 K	123.1 ± 6.4
305.15 K	124.5 ± 6.5
310.15 K	126 ± 6.5
315.15 K	127.3 ± 6.6
320.15 K	128.8 ± 6.7
325.15 K	130.5 ± 6.8

O [water]
Small sample (50 mg) DSC
Conditions	molar heat capacity at constant pressure [J/K/mol]
305.15 K	74.95 ± 3.9
310.15 K	74.96 ± 3.9
315.15 K	74.9 ± 3.9
320.15 K	74.93 ± 3.9
325.15 K	75.01 ± 3.9
330.15 K	75.09 ± 3.9
335.15 K	75.11 ± 3.9
340.15 K	75.23 ± 3.9
345.15 K	75.31 ± 3.9
350.15 K	75.43 ± 3.9
355.15 K	75.53 ± 3.9
360.15 K	75.59 ± 3.9
365.15 K	75.72 ± 3.9
370.15 K	75.8 ± 3.9

From the NIST ThermoML archive (doi:10.1016/j.fluid.2006.03.015)
